In PubChem BioAssay AID1963975 (Molecular Pharmacology Branch, DTP, NCI, 2024):

System: 624824-186-R-J2-PDC multicell spheroids, viability
Experiment: Anticancer human tumor 624824-186-R-J2-PDC patient-derived colon adenocarcinoma cell line growth inhibition [PI3K]
Conditions: for IC50: curve of first compound; for viability, T/C: stronger effect = lower value
In short: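 Spheroid viability read-out. Co-cultures contained the tumor line plus HUVEC and human MSCs. Each agent was paired with a PI3K inhibitor (inavolisib, alpelisib, duvelisib, copanlisib) across half-log dilutions starting at clinical Cmax, or at 10 microM when Cmax was unknown.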

[1] = second compound 0.0316 µM, first compound 0.0316 µM
[2] = second compound 0.0316 µM, first compound 0.1 µM
[3] = second compound 0.0316 µM, first compound 0.316 µM
[4] = second compound 0.0316 µM, first compound 1 µM
[5] = second compound 0.0316 µM, first compound 3.16 µM
[6] = second compound 0.0316 µM, first compound 10 µM
[7] = second compound 0.1 µM, first compound 0.0316 µM
[8] = second compound 0.1 µM, first compound 0.1 µM
[9] = second compound 0.1 µM, first compound 0.316 µM
[10] = second compound 0.1 µM, first compound 1 µM
[11] = second compound 0.1 µM, first compound 3.16 µM
[12] = second compound 0.1 µM, first compound 10 µM
[13] = second compound 0.316 µM, first compound 0.0316 µM
[14] = second compound 0.316 µM, first compound 0.1 µM
[15] = second compound 0.316 µM, first compound 0.316 µM
[16] = second compound 0.316 µM, first compound 1 µM
[17] = second compound 0.316 µM, first compound 3.16 µM
[18] = second compound 0.316 µM, first compound 10 µM
[19] = second compound 1 µM, first compound 0.0316 µM
[20] = second compound 1 µM, first compound 0.1 µM
[21] = second compound 1 µM, first compound 0.316 µM
[22] = second compound 1 µM, first compound 1 µM
[23] = second compound 1 µM, first compound 3.16 µM
[24] = second compound 1 µM, first compound 10 µM
[25] = second compound 3.16 µM, first compound 0.0316 µM
[26] = second compound 3.16 µM, first compound 0.1 µM
[27] = second compound 3.16 µM, first compound 0.316 µM
[28] = second compound 3.16 µM, first compound 1 µM
[29] = second compound 3.16 µM, first compound 3.16 µM
[30] = second compound 3.16 µM, first compound 10 µM
[31] = second compound 10 µM, first compound 0.0316 µM
[32] = second compound 10 µM, first compound 0.1 µM
[33] = second compound 10 µM, first compound 0.316 µM
[34] = second compound 10 µM, first compound 1 µM
[35] = second compound 10 µM, first compound 3.16 µM
[36] = second compound 10 µM, first compound 10 µM
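Also: spheroids exposed to agents for 7 days before viability read.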
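For viability, T/C in this document: 100% = DMSO vehicle treated spheroids.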

Work on `CC1(C)CCC(CN2CCN(c3ccc(C(=O)NS(=O)(=O)c4ccc(NCC5CCOCC5)c([N+](=O)[O-])c4)c(Oc4cnc5[nH]ccc5c4)c3)CC2)=C(c2ccc(Cl)cc2)C1` + CC(Nc1ncnc2nc[nH]c12)c1cc2cccc(Cl)c2c(=O)n1-c1ccccc1 yielded an IC50 (second compound 0.0316 µM) of over 10 µM, an IC50 (second compound 0.1 µM) of over 10 µM and an IC50 (second compound 0.316 µM) of over 10 µM. For the same compound, the IC50 (second compound 1 µM) was over 10 µM, the IC50 (second compound 3.16 µM) was over 10 µM and the IC50 (second compound 10 µM) was over 10 µM. For the same compound, the viability, T/C [1] was 89.4%, the viability, T/C [2] was 98.6% and the viability, T/C [3] was 77.3%. It also gave a viability, T/C [4] of 81.7%, a viability, T/C [5] of 71.6% and a viability, T/C [6] of 58.4%. The viability, T/C [7] was 103%, the viability, T/C [8] was 90.7% and the viability, T/C [9] was 91.1%. It also gave a viability, T/C [10] of 67.6%, a viability, T/C [11] of 67.2% and a viability, T/C [12] of 58.2%. For the same compound, the viability, T/C [13] was 88.3%, the viability, T/C [14] was 90.7% and the viability, T/C [15] was 68.4%. For the same compound, the viability, T/C [16] was 79.2%, the viability, T/C [17] was 63.1% and the viability, T/C [18] was 79%. It also gave a viability, T/C [19] of 86.3%, a viability, T/C [20] of 92.3% and a viability, T/C [21] of 80.2%. The viability, T/C [22] was 66.5%, the viability, T/C [23] was 77% and the viability, T/C [24] was 80.4%. It also gave a viability, T/C [25] of 88.5%, a viability, T/C [26] of 106% and a viability, T/C [27] of 73%. The viability, T/C [28] was 78.9%, the viability, T/C [29] was 86% and the viability, T/C [30] was 106%. The viability, T/C [31] was 103%, the viability, T/C [32] was 102% and the viability, T/C [33] was 108%. For the same compound, the viability, T/C [34] was 82.2%, the viability, T/C [35] was 92.2% and the viability, T/C [36] was 87%.

With `CCCS(=O)(=O)Nc1ccc(F)c(C(=O)c2c[nH]c3ncc(-c4ccc(Cl)cc4)cc23)c1F` + CC(Nc1ncnc2nc[nH]c12)c1cc2cccc(Cl)c2c(=O)n1-c1ccccc1 the IC50 (second compound 0.0316 µM) was over 10 µM, the IC50 (second compound 0.1 µM) was 8.61 µM and the IC50 (second compound 0.316 µM) was over 10 µM. The IC50 (second compound 1 µM) was 9.47 µM, the IC50 (second compound 3.16 µM) was over 10 µM and the IC50 (second compound 10 µM) was 6.82 µM. For the same compound, the viability, T/C [1] was 90.2%, the viability, T/C [2] was 74.8% and the viability, T/C [3] was 92.9%. It also gave a viability, T/C [4] of 84%, a viability, T/C [5] of 133% and a viability, T/C [6] of 66.6%. It also gave a viability, T/C [7] of 108%, a viability, T/C [8] of 80.1% and a viability, T/C [9] of 90%. The viability, T/C [10] was 74.8%, the viability, T/C [11] was 128% and the viability, T/C [12] was 43%. For the same compound, the viability, T/C [13] was 113%, the viability, T/C [14] was 85.1% and the viability, T/C [15] was 72.8%. The viability, T/C [16] was 111%, the viability, T/C [17] was 130% and the viability, T/C [18] was 65.5%. It also gave a viability, T/C [19] of 83.5%, a viability, T/C [20] of 65.2% and a viability, T/C [21] of 81%. The viability, T/C [22] was 103%, the viability, T/C [23] was 125% and the viability, T/C [24] was 47.8%. For the same compound, the viability, T/C [25] was 110%, the viability, T/C [26] was 88.1% and the viability, T/C [27] was 70.1%. For the same compound, the viability, T/C [28] was 77.3%, the viability, T/C [29] was 109% and the viability, T/C [30] was 52.9%. The viability, T/C [31] was 112%, the viability, T/C [32] was 95% and the viability, T/C [33] was 80.3%. It also gave a viability, T/C [34] of 79.9%, a viability, T/C [35] of 83.4% and a viability, T/C [36] of 35.2%.

Work on `C[C@@H](NC(=O)c1ncnc(N)c1Cl)c1ncc(C(=O)Nc2cc(C(F)(F)F)c(Cl)cn2)s1` + CC(Nc1ncnc2nc[nH]c12)c1cc2cccc(Cl)c2c(=O)n1-c1ccccc1 yielded an IC50 (second compound 0.0316 µM) of over 10 µM, an IC50 (second compound 0.1 µM) of over 10 µM and an IC50 (second compound 0.316 µM) of over 10 µM. The IC50 (second compound 1 µM) was over 10 µM, the IC50 (second compound 3.16 µM) was over 10 µM and the IC50 (second compound 10 µM) was over 10 µM. For the same compound, the viability, T/C [1] was 94%, the viability, T/C [2] was 106% and the viability, T/C [3] was 78.6%. It also gave a viability, T/C [4] of 69.9%, a viability, T/C [5] of 55.4% and a viability, T/C [6] of 67.2%. The viability, T/C [7] was 85.3%, the viability, T/C [8] was 82.3% and the viability, T/C [9] was 81.1%. The viability, T/C [10] was 67.7%, the viability, T/C [11] was 57% and the viability, T/C [12] was 56%. The viability, T/C [13] was 100%, the viability, T/C [14] was 99.3% and the viability, T/C [15] was 89.8%. It also gave a viability, T/C [16] of 65.4%, a viability, T/C [17] of 55.9% and a viability, T/C [18] of 58%. It also gave a viability, T/C [19] of 110%, a viability, T/C [20] of 85.6% and a viability, T/C [21] of 87.3%. It also gave a viability, T/C [22] of 63.1%, a viability, T/C [23] of 55% and a viability, T/C [24] of 54.1%. It also gave a viability, T/C [25] of 94.5%, a viability, T/C [26] of 93.9% and a viability, T/C [27] of 65.4%. For the same compound, the viability, T/C [28] was 65.6%, the viability, T/C [29] was 54.7% and the viability, T/C [30] was 59.6%. For the same compound, the viability, T/C [31] was 95.9%, the viability, T/C [32] was 92% and the viability, T/C [33] was 99.9%. The viability, T/C [34] was 77.2%, the viability, T/C [35] was 65.7% and the viability, T/C [36] was 57.8%.
